{"source": "PubChem BioAssay AID1117331", "test_system": "INS-1E rat insulinoma, insulin secretion, 5 mM glucose", "assay": "dose-response inhibition of insulin secretion, INS-1E rat insulinoma line, 5 mM glucose, cell-based (AID 1117331)", "note": "Active and inactive are the calls of the source. The rule behind the calls is not given here."}
{"compound": "Cc1ccc([N+](=O)[O-])[c]2c1[O][Hg]2", "values": [{"measurement": "IC50", "value": "> 33.3 µM (inactive)"}]}
